System: NPC
Experiment: GFP levels in NPC measured by flow cytometry, KC2 and DLin-MC3-DMA substituted as ionizable lipid
Format: cell-based, human
Conditions: 48 H, ionizable lipid in the Lipid Mix K, over the control Lipid Mix A (FIG. 11)
Source text: Two commonly used ionizable lipids, KC2 and DLin-MC3-DMA, were substituted for the ionizable lipid component for Lipid Mixes A and K. NPC were transfected as specified above, and the results at 48 H for GFP Median Fluorescent Intensity via flow cytometry are shown in FIG. 11. Both KC2 and DLin-MC3-DMA (MC3 in the graph) were effective in the Lipid Mix K to enhance GFP expression over the control Lipid Mix A. PNI-IL-1 is 1,17-bis(2-octylcyclopropyl)heptadecan-9-yl 4-(dimethylamino)butanoate HCl).

Compound	GFP Median Fluorescent Intensity via flow cytometry
CCCCCC=CCC=CCCCCCCCCC(CCCCCCCCC=CCC=CCCCCC)OC(=O)CCCN(C)C (centres unmarked) [DLin-MC3-DMA, heptatriaconta-6,9,28,31-tetraen-19-yl 4-(dimethylamino)butanoate]	effective
CCCCC/C=C\C/C=C\CCCCCCCCC1(CCCCCCCC/C=C\C/C=C\CCCCC)OCC(CCN(C)C)O1 (centres unmarked) [KC2, 2,2-dilinoleyl-4-(2-dimethylaminoethyl)-[1,3]-dioxolane]	effective
